Literature values in patent US5599811A, “Benzothiazine dioxides as endothelin antagonists” (Warner-Lambert Company, priority 1995, dated 1997).
Read-outs that look alike come from different tables or passages of the source. Where a SMILES comes first, the peptide text is derived from it. [ ]: non-standard residue; d: D form.

Tests used:
[1] = test system: cerebral vasospasm following SAH; conditions: rat; cited from earlier work
[2] = test system: cerebral vasospasm following SAH; conditions: rabbit; cited from earlier work
[3] = test system: allergic sheep; conditions: cited from earlier work
[4] = test system: cerebral vasospasm following subarachnoid hemorrhage; conditions: in vivo; cited from earlier work
[5] = test system: basilar artery; conditions: rabbits with SAH; cited from earlier work
[6] = test system: congestive heart failure; conditions: rat, in vivo; cited from earlier work
[7] = test system: acute renal ischemia; conditions: rats; cited from earlier work
[8] = test system: subarachnoid hemorrhage; conditions: rats; cited from earlier work
[9] = test system: ischemia-induced acute renal failure; conditions: anesthetized dogs (title of citation); cited from earlier work
[10] = test system: basilar artery; conditions: after 7 days, canine two-hemorrhage model of SAH; cited from earlier work

## CC(C)C[C@@H]1NC(=O)[C@@H](C(C)C)NC(=O)[C@@H]2CCCN2C(=O)[C@@H](CC(=O)O)NC(=O)[C@@H](Cc2c[nH]c3ccccc23)NC1=O [BQ-123] (cyclo(L[dW][dD]P[dV]))
[1]
  prevention of early cerebral vasospasm following SAH: prevents early cerebral vasospasm following SAH
[2]
  prevention of early cerebral vasospasm following SAH: prevents early cerebral vasospasm following SAH
[3]
  block of ET-1-induced bronchoconstriction and tracheal smooth muscle contraction: block ET-1-induced bronchoconstriction and tracheal smooth muscle contraction
[4]
  prevention of early cerebral vasospasm following subarachnoid hemorrhage: prevent early cerebral vasospasm following subarachnoid hemorrhage

## COc1ccccc1Oc1c(NS(=O)(=O)c2ccc(C(C)(C)C)cc2)nc(-c2ncccn2)nc1OCCO [Bosentan]
[5]
  reduction of basilar artery cross-sectional area compared to sham rabbits: 36±7%
[6]
  treatment of congestive heart failure: useful in the treatment of congestive heart failure

## COc1cccc(Oc2c(NS(=O)(=O)c3ccc(C(C)(C)C)cc3)ncnc2OCCO)c1 [Ro 46-2005]
[1]
  prevention of early cerebral vasospasm following SAH: prevent early cerebral vasospasm following SAH
[7]
  effect in model of acute renal ischemia: effective
[8]
  effect in model of subarachnoid hemorrhage: effective

## CCCOc1ccc2c(c1)[C@@H](c1ccc(OC)cc1OCC(=O)O)[C@H](C(=O)O)[C@H]2c1ccc2c(c1)OCO2 [SB 209670]
[9]
  effect in ischemia-induced acute renal failure: beneficial in ischemia-induced acute renal failure

## FR 139317
[10]
  inhibition of vasoconstriction of the basilar artery: significantly inhibited the vascoconstriction of the basilar artery
